Assay [1] concerns MCF7-WT cells (MCF7 ER-alpha wildtype). The experiment in a line: In vitro proliferation (viability) assay, CellTiter-Glo, MCF7-WT cells. Format: cell-based. To be noted: Homo sapiens; MCF7-WT cells, 6 days, CTG vs day 0; mean ± SD-type spread (n); read-out: GI50 WT. The protocol:
(§1) MCF7 BUS cells (Coser, et al., (2003) PNAS 100(24): 13994-13999) were maintained in Dulbecco's Modified Eagle Medium supplemented with 10% FBS, 4 mM L-glutamine and 1× non-essential amino acids. Lenti-X 293T cells (Clontech, Cat #632180) were routinely cultured in Dulbecco's Modified Eagle Medium supplemented with 10% FBS.
(§2) The QuikChange II XL Site-Directed Mutagenesis Kit (Agilent Technologies, Cat #200523) was used to generate Y537S, Y537C, Y537N and D538G mutations within the ERα exon 8. Wild-type ESR1 cDNA (GeneCopoeia Inc., Cat #GC-A0322, accession no. NM 000125) was used as a template with the following mutagenesis primers (where the underlined nucleotides represent site mutations); Y537S: F-AAGAACGTGGTGCCCCTCTCTGACCTGCTGCTGGAGATG (SEQ ID NO: 1), R-CATCTCCAGCAGCAGGTCAGAGAGGGGCACCACGTTCTT (SEQ ID NO: 2); Y537N: F-AAGAACGTGGTGCCCCTCAATGACCTGCTGCTGGAGATG (SEQ ID NO: 3), R-CATCTCCAGCAGCAGGTCATTGAGGGGCACCACGTTCTT (SEQ ID NO: 4); Y537C: F-AAGAACGTGGTGCCCCTCTGTGACCTGCTGCTGGAGATG (SEQ ID NO: 5), R-CATCTCCAGCAGCAGGTCACAGAGGGGCACCACGTTCTT (SEQ ID NO: 6); D538G: F-AACGTGGTGCCCCTCTATGGCCTGCTGCTGGAGATGCTG (SEQ ID NO: 7), R-CAGCATCTCCAGCAGCAGGCCATAGAGGGGCACCACGTT (SEQ ID NO: 8). WT and mutant ESR1 cDNAs were cloned into the designation lentiviral vector pLenti6.3/V5-Dest (Invitrogen, Cat #V533-06). To make lentivirus, DNAs (WT and mutant ESR1) were co-transfected with packaging plasmids into Lenti-X 293T cells using TransIT (Mirus, Cat #MIR 2700). 48 h post-transfection, virus containing media was filtered and added to MCF7 cells in the presence of 8 µg/ml polybrene overnight. Two days following infection, cells were placed under selection with 10 μg/ml blasticidin for 2 weeks for stable expression.
(§3) MCF7-WT and -Y537S cells were seeded at 1500 cells/well in black-walled 96-well plates (assay plates, Costar, Cat #3904). In parallel, cells were also seeded in a separate 96-well plate (8 wells/cell line, control plate) for which a CTG (CellTiter-Glo® Luminescent Viability Assay, Promega, Cat #G7572) was measured the following day (day 0 reading). The day 0 reading was used for the GI50 calculation at the termination of the experiment. The day following seeding, compounds were added to assay plates. Briefly, a 1:4 serial dilution was prepared in DMSO at 200× final concentration for a total of 10 concentrations (9 dilutions containing compound and one is DMSO only). Serially diluted compounds were pipetted into medium to prepare a compound-medium mix at 10× final concentration. 10 μl of compound-medium mix was added to MCF7-WT and -Y537S cells at 3 wells/concentration (triplicate for each concentration). On day 3, media/compound was removed and replaced with fresh media/compound as described above. On day 6, CTG was measured and compared to day 0 readings from control plate to assess GI50.
Background: Cellular ATP, detected with luciferase, serves as a proxy for viable cell number.

Assay [2] deals with MCF7-Y537S cells (MCF7 ER-alpha Y537S mutant). The experiment in a line: In vitro proliferation (viability) assay, CellTiter-Glo, MCF7-Y537S cells. Format: cell-based. To be noted: Homo sapiens; MCF7-Y537S cells, 6 days, CTG vs day 0; mean ± SD-type spread (n); read-out: GI50 MUT (Y537S). The protocol:
as §1, §2, §3

Take `CC/C(=C(/c1ccc(OCCNC/C=C/C(=O)N(C)C)cc1)c1ccc2[nH]nc(F)c2c1)c1ccc(F)cc1` [Compound 45]: the concentration for 50% growth inhibition (GI50) (usually the concentration giving 50% growth inhibition) came out at 4.14 nM in assay [1] and 104 nM in assay [2].

As to `CN(C)C(=O)/C=C/CNCCOc1ccc(/C(=C(/CC(F)(F)F)c2ccncc2F)c2ccc3[nH]nc(F)c3c2)cn1` [Compound 62, (E)-N,N-dimethyl-4-((2-((5-((Z)-4,4,4-trifluoro-1-(3-fluoro-1H-indazol-5-yl)-2-(3-fluoropyridin-4-yl)but-1-en-1-yl)pyridin-2-yl)oxy)ethyl)amino)but-2-enamide], the 50% growth inhibitory concentration (GI50) came out at 0.3 nM in assay [1] and 1.3 nM in assay [2].

For the molecule `CC/C(=C(/c1ccc(OCCNC/C=C/C(=O)N(C)C)cc1)c1ccc2[nH]nc(F)c2c1)c1c(F)cccc1F` [Compound 50, (E)-4-((2-(4-((E)-2-(2,6-difluorophenyl)-1-(3-fluoro-1H-indazol-5-yl)but-1-en-1-yl)phenoxy)ethyl)amino)-N,N-dimethylbut-2-enamide], the GI50 was 2.46 nM in assay [1] and 67.5 nM in assay [2].

Take `CC/C(=C(/c1ccc(OCCNC/C=C/C(=O)N2CCCC2)cc1)c1ccc2[nH]ncc2c1)c1ccccc1` [Compound 11, (E)-4-((2-(4-((E)-1-(1H-indazol-5-yl)-2-phenylbut-1-en-1-yl)phenoxy)ethyl)amino)-1-(pyrrolidin-1-yl)but-2-en-1-one]: the 50% growth inhibitory concentration (GI50) in assay [1] came out at 0.76 nM; in assay [2], 14 nM.

Regarding `CN(C)C(=O)/C=C/CNCCOc1ccc(/C(=C(/CCF)c2ccccc2)c2ccc3[nH]nc(F)c3c2)cc1` [Compound 84], the figures for the 50% growth inhibitory concentration (GI50) in assay [1] and in assay [2] were 2.15 ± 0.15 nM and 34.9 ± 1.5 nM, respectively.

On to `CC/C(=C(/c1ccc(OCCNC/C=C/C(=O)N(C)C)cc1)c1ccc2[nH]nc(F)c2c1)c1ccccn1` [Compound 67, (E)-4-((2-(4-((E)-1-(3-fluoro-1H-indazol-5-yl)-2-(pyridin-2-yl)but-1-en-1-yl)phenoxy)ethyl)amino)-N,N-dimethylbut-2-enamide], for which the concentration for 50% growth inhibition (GI50) in assay [1] worked out at 10.5 nM; in assay [2] it was 193 nM.

As for `CN(C)C(=O)/C=C/CNCCOc1ccc(/C(=C(/CCCl)c2ccccc2)c2ccc3[nH]ncc3c2)cc1` [Compound 30, (E)-4-((2-(4-((E)-4-chloro-1-(1H-indazol-5-yl)-2-phenylbut-1-en-1-yl)phenoxy)ethyl)amino)-N,N-dimethylbut-2-enamide], the 50% growth inhibitory concentration (GI50) in assay [1] amounted to 2.74 ± 1.06 nM; in assay [2] it was 61.3 ± 9.98 nM.

With `C#CCCN(C)C(=O)/C=C/CNCCOc1ccc(/C(=C(/CC)c2ccccc2)c2ccc3[nH]ncc3c2)cc1` [Compound 9, (E)-4-((2-(4-((E)-1-(1H-indazol-5-yl)-2-phenylbut-1-en-1-yl)phenoxy)ethyl)amino)-N-(but-3-yn-1-yl)-N-methylbut-2-enamide], the concentration for 50% growth inhibition (GI50) was 5.57 nM in assay [1] and 118 nM in assay [2].

For the molecule `CC/C(=C(\c1ccc2[nH]nc(F)c2c1)c1ccc(OCCNC/C=C/C(=O)N(C)C)cc1F)c1ccccc1` [Compound 64, (E)-4-((2-(3-fluoro-4-((Z)-1-(3-fluoro-1H-indazol-5-yl)-2-phenylbut-1-en-1-yl)phenoxy)ethyl)amino)-N,N-dimethylbut-2-enamide], the figures for the GI50 in assay [1] and in assay [2] were 3.1 nM and 58.3 nM, respectively.

On to `CC/C(=C(/c1ccc(OCCNC/C=C/C(=O)N(C)C)cc1)c1ccc2[nH]ncc2c1)c1ccccc1OC(F)F` [Compound 32, (E)-4-((2-(4-((E)-2-(2-(difluoromethoxy)phenyl)-1-(1H-indazol-5-yl)but-1-en-1-yl)phenoxy)ethyl)amino)-N,N-dimethylbut-2-enamide], for which the GI50 in assay [1] was determined as 1.28 nM; in assay [2], 22.9 nM.

Consider `CC(C)/C(=C(/c1ccc(OCCNC/C=C/C(=O)N(C)C)cc1)c1ccc2[nH]nc(F)c2c1)c1ccccc1` [Compound 82, (E)-4-((2-(4-((E)-1-(3-fluoro-1H-indazol-5-yl)-3-methyl-2-phenylbut-1-en-1-yl)phenoxy)ethyl)amino)-N,N-dimethylbut-2-enamide], for which the concentration for 50% growth inhibition (GI50) in assay [1] came to 4.65 ± 2.9 nM; in assay [2] it was 93.7 ± 6.3 nM.

Regarding `CC/C(=C(/c1ccc(OC(C)(C)CNC/C=C/C(=O)N(C)C)cc1)c1ccc2[nH]ncc2c1)c1ccccc1` [Compound 99, (E)-4-((2-(4-((E)-1-(1H-indazol-5-yl)-2-phenylbut-1-en-1-yl)phenoxy)-2-methylpropyl)amino)-N,N-dimethylbut-2-enamide], the GI50 in assay [1] amounted to 2.7 nM; in assay [2], 81.4 nM.

For the molecule `CN(CCO)C(=O)/C=C/CNCCOc1ccc(/C(=C(\c2ccccc2)C2CCC2)c2ccc3[nH]nc(F)c3c2)cc1` [Compound 53, (E)-4-((2-(4-((E)-2-cyclobutyl-1-(3-fluoro-1H-indazol-5-yl)-2-phenylvinyl)phenoxy)ethyl)amino)-N-(2-hydroxyethyl)-N-methylbut-2-enamide], the GI50 in assay [1] came out at 3.59 nM; in assay [2], 76.5 nM.

Take `CC/C(=C(/c1ccc(OCCNC/C=C/C(=O)N(C)C)cc1)c1ccc2[nH]nc(F)c2c1)c1ccc(F)cc1Cl` [Compound 19, (E)-4-((2-(4-((E)-2-(2-chloro-4-fluorophenyl)-1-(3-fluoro-1H-indazol-5-yl)but-1-en-1-yl)phenoxy)ethyl)amino)-N,N-dimethylbut-2-enamide]: the GI50 in assay [1] is 1.58 nM; in assay [2], 18.6 nM.

On to `CC/C(=C(/c1ccc(OCCNC/C=C/C(=O)N2CCC2)cc1)c1ccc2[nH]ncc2c1)c1ccccc1` [Compound 10, (E)-4-((2-(4-((E)-1-(1H-indazol-5-yl)-2-phenylbut-1-en-1-yl)phenoxy)ethyl)amino)-1-(azetidin-1-yl)but-2-en-1-one], for which the GI50 in assay [1] turned out to be 2.22 ± 2.34 nM; in assay [2], 21.2 ± 17.2 nM.

Regarding `CC/C(=C(\c1ccc2[nH]nc(F)c2c1)c1ccc(OCCNC/C=C/C(=O)N(C)C)cn1)c1ccccc1` [Compound 93, (E)-4-((2-((6-((Z)-1-(3-fluoro-1H-indazol-5-yl)-2-phenylbut-1-en-1-yl)pyridin-3-yl)oxy)ethyl)amino)-N,N-dimethylbut-2-enamide], the GI50 in assay [1] is 12.4 nM; in assay [2], 369 nM.

With `CC/C(=C(/c1ccc(OCCNC/C=C/C(=O)N(C)C)cc1)c1ccc2[nH]ncc2c1)c1ccccc1OC` [Compound 31], the figures for the GI50 in assay [1] and in assay [2] were 0.83 nM and 13.1 nM, respectively.

In the case of `C/C(=C(/c1ccc(OCCNC/C=C/C(=O)N(C)C)cc1)c1ccc2[nH]ncc2c1)c1ccccc1` [Compound 54, (E)-4-((2-(4-((E)-1-(1H-indazol-5-yl)-2-phenylprop-1-en-1-yl)phenoxy)ethyl)amino)-N,N-dimethylbut-2-enamide], the GI50 in assay [1] is 7.97 ± 1.65 nM; in assay [2] it was 160 ± 39.6 nM.

`CC/C(=C(/c1ccc(OC(C)CNC/C=C/C(=O)N(C)C)cc1)c1ccc2[nH]ncc2c1)c1ccccc1` (stereo not shown) [Compound 90, (E)-4-((2-(4-((E)-1-(1H-indazol-5-yl)-2-phenylbut-1-en-1-yl)phenoxy)propyl)amino)-N,N-dimethylbut-2-enamide]: the GI50 in assay [1] was 2.5 nM; in assay [2] it was 22.7 nM.

For the molecule `CC/C(=C(/c1ccc(OCCNC/C(C)=C/C(=O)N(C)C)cc1)c1ccc2[nH]ncc2c1)c1ccccc1` [Compound 21, (E)-4-((2-(4-((E)-1-(1H-indazol-5-yl)-2-phenylbut-1-en-1-yl)phenoxy)ethyl)amino)-N,N,3-trimethylbut-2-enamide], the 50% growth inhibitory concentration (GI50) in assay [1] was found to be 26.6 ± 21.8 nM; in assay [2] it was 154 ± 51.7 nM.

(Values after patent publication US10851065B2 (Eisai R&D Management Co., Ltd., priority 2015, dated 2020).)
